Reference: PubChem BioAssay (NCI)
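In this assay, cells in 96-well plates receive the compound at five concentrations for 48 hours. Endpoints are linearly interpolated between the surrounding concentrations. Here, GI50 denotes the concentration required for 50% inhibition of growth. The concentration for full growth arrest is given as TGI.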

Assays:
Assay in all cases: inhibition of tumour cell growth, NCI panel, 48 h
XF 498 CNS = system: XF 498 CNS
DMS 273 small cell lung = system: DMS 273 small cell lung
SNB-78 CNS = system: SNB-78 CNS
LXFL 529 NSCLC = system: LXFL 529 NSCLC
M19-MEL melanoma = system: M19-MEL melanoma
OVCAR-8 ovarian = system: OVCAR-8 ovarian
DLD-1 colon = system: DLD-1 colon
DMS 114 small cell lung = system: DMS 114 small cell lung
KM12 colon = system: KM12 colon
CAKI-1 renal = system: CAKI-1 renal
DU-145 prostate = system: DU-145 prostate
KM20L2 colon = system: KM20L2 colon

| Structure (SMILES) | TGI (XF 498 CNS) | TGI (DMS 273 small cell lung) | TGI (SNB-78 CNS) | TGI (LXFL 529 NSCLC) | TGI (M19-MEL melanoma) | TGI (OVCAR-8 ovarian) | TGI (DLD-1 colon) | TGI (DMS 114 small cell lung) | TGI (KM12 colon) | TGI (CAKI-1 renal) | TGI (DU-145 prostate) | TGI (KM20L2 colon) | GI50 (XF 498 CNS) | GI50 (LXFL 529 NSCLC) | GI50 (M19-MEL melanoma) | GI50 (DMS 114 small cell lung) | GI50 (KM20L2 colon) |
| --- | --- | --- | --- | --- | --- | --- | --- | --- | --- | --- | --- | --- | --- | --- | --- | --- | --- |
| O=S(Cc1ccccc1)c1nc2ccccc2nc1-c1cccs1 (stereo not drawn) | 12.3 µM | 22.7 µM | 56.2 µM | 12.8 µM | 22.6 µM | 38.8 µM | 24.6 µM | 5.91 µM | 34.5 µM | – | – | – | – | – | – | – | – |
| CS(=O)(=O)C(C#N)c1nc2ccccc2nc1Cl (stereo not drawn) | > 100 µM | > 100 µM | > 100 µM | > 100 µM | > 100 µM | > 100 µM | > 100 µM | > 100 µM | > 58.2 µM | > 100 µM | > 100 µM | – | – | – | – | – | – |
| C=C1C(=O)OC2/C=C(\C(=O)O)CC/C=C(\C)CC(OC(=O)/C=C(\C)CC)C12 (stereo not drawn) | 32.5 µM | 34 µM | 61 µM | 31.6 µM | 29.1 µM | 33.9 µM | 43.6 µM | 30.2 µM | 27.9 µM | 54.1 µM | – | 39.5 µM | – | – | – | – | – |
| N#C[S-].[La+3].c1cnc2c(c1)ccc1cccnc12.c1cnc2c(c1)ccc1cccnc12.c1cnc2c(c1)ccc1cccnc12 | 9.42 µM | – | – | 15.3 µM | 3.69 µM | 11.5 µM | – | 5.45 µM | 22.6 µM | 12.7 µM | – | 16.4 µM | 4.03 µM | 1.83 µM | 0.688 µM | 1.58 µM | 0.986 µM |
| Cc1ccc(S(=O)(=O)Nc2cccc3c(=O)[nH]cnc23)cc1 | > 100 µM | > 100 µM | > 100 µM | > 100 µM | > 100 µM | > 100 µM | – | > 100 µM | > 100 µM | > 100 µM | – | > 100 µM | – | – | – | – | – |
| Cc1n(CC(C)C)c2c([n+]1C)C(=O)c1ccccc1C2=O | 1.46 µM | 0.786 µM | 3.48 µM | 0.508 µM | 0.216 µM | 0.937 µM | 0.975 µM | < 0.0255 µM | 1.6 µM | > 21.7 µM | 0.41 µM | 1.6 µM | – | – | – | – | – |
| CCC(CC)NC1=C(NC(C)=O)C(=O)c2ccccc2C1=O | > 50 µM | > 50 µM | > 50 µM | > 50 µM | > 50 µM | > 50 µM | > 50 µM | – | > 50 µM | – | – | > 50 µM | – | – | – | – | – |
| CN(C)/C=C/C(=CC=[N+](C)C)/C=C/N(C)C | > 100 µM | > 100 µM | > 100 µM | > 100 µM | – | > 100 µM | > 100 µM | – | > 100 µM | > 100 µM | – | – | – | – | – | – | – |
